{
  "source": "patent US8735443B2",
  "about": "“Method of treating diabetes-related vascular complications” (Kuwait University, priority 2008, dated 2014)",
  "key": {"gp 91^phox": {"test_system": "gp 91^phox", "assay": "Aortic mRNA expression by real-time PCR, gp 91phox", "format": "in vivo, rat", "conditions": "aorta of LA-treated GK rats", "protocol": "(§1) Further, with regard to quantitative real-time polymerase chain reactions (PCR) in the study, total RNA from the arterial samples was isolated using TRIZOL® reagent, and RNA integrity was verified by agarose gel electrophoresis and quantified by spectrophotometry. Reverse transcription reaction of total RNA (5 μg) was performed using a superscript 111 first-strand synthesis system. Quantitative real-time PCR was performed using fast SYBR Green QPCR. […]\n(§2) The housekeeping gene beta-actin was used for internal normalization. Fidelity of the PCR reaction was determined by melting temperature analysis. PCR efficiency for each primer pair was determined by quantitating amplification with increasing concentration of template cDNA. […] RNA expression of target genes was calculated based on the real-time PCR efficiency E and the threshold crossing point (CP) and is expressed relative to the reference gene beta-actin."}, "aortic tissues": {"test_system": "aortic tissues", "assay": "Apoptotic cell death ELISA, cytoplasmic histone-associated DNA fragments in aorta", "format": "in vivo, rat", "protocol": "With regard to the assessment of apoptotic cell death using enzyme-linked immuno-absorbent-based assay, aortic tissues derived from control, GK and LA-treated GK rats were lysed and cytoplasmic histone-associated DNA fragments, indicating apoptotic cell death were determined by the Cell Death ELISA® plus kit. Data are reported as arbitrary optical density units normalized to protein concentration."}, "TNF-α": {"test_system": "TNF-α", "assay": "Aortic mRNA expression by QRT-PCR, TNF-α", "format": "in vivo, rat", "conditions": "GK rats, LA chronic therapy", "protocol": "as §1, §2"}, "cultured arteries": {"test_system": "cultured arteries", "assay": "Cultured arteries of non-diabetic control animals exposed to TNF-α", "design": "species or system rat", "conditions": "pretreatment with LA"}, "NF-κB": {"test_system": "NF-κB", "assay": "Aortic nuclear NF-κB, western blotting", "format": "in vivo, rat", "conditions": "GK rats, LA chronic therapy", "protocol": "For detection of caspase 3-like activity, protein was isolated and caspase activity was detected in resulting supernatant using an APO-ONE homogenous caspase 3/7 assay (Promega). With regard to subcellular fractionation and western blotting, aortic tissue nuclear extracts were prepared and protein (40 μg) was loaded in each well of […] polyacrylamide gel. Separated polypeptide was transferred to nitrocellulose membrane IBio-Rad) and probed with anti NFκB at a 1:2,000 […]. Chemiluminescent detection was performed by an ECL Western Blotting Detection Kit®.\nIt is well known that TNF-α enhances the activity of NF-κB, most probably via H202 mediated mechanisms. Using data showing that both TNF-α and H202 levels were elevated in diabetic vascular tissues, NF-κB activity was assessed using a western blotting-based technique with an antibody (anti P65) that specifically recognizes the active form of this transcription factor. […] Nuclear localization of NF-κB in aortic tissues was determined using differential centrifugation and western blotting-based techniques."}, "ICAM-1": {"test_system": "ICAM-1", "assay": "Aortic mRNA expression by QRT-PCR, ICAM-1", "format": "in vivo, rat", "conditions": "GK rats, LA therapy", "protocol": "An expression of a number of inflammatory markers, including IL-6 and ICAM-1, were measured in control, diabetic and LA-treated diabetic vessels. The results confirmed marked elevation in the vascular expression of both […] and ICAM-1 during diabetes, as shown in FIGS. 11A and 11B. […] Aortic expression of IL-6 is shown in FIG. 11A and aortic expression of intracellular adhesion molecule (ICAM-1) is shown in FIG. 11B. Both were determined using QRT-PCR based techniques."}, "diabetic fibroblasts": {"test_system": "diabetic fibroblasts", "assay": "Inflammatory cytokine transcription in fibroblasts, RT-PCR", "format": "cell-based, rat", "conditions": "lipoic acid 500 μM, Nrf2-dependent", "text": "To determine the effect of α-lipoic acid on isolated cells from normal and diabetic rats, primary rat fibroblasts were derived from dorsal skin biopsies performed on four diabetic Coto Kakizaki rats (DFs) and four age-matched (12-14 months) and sex-matched (female) Wistar control rats (CFs). After sterilization in povidine solution, the rat skin was washed in sterile water and rinsed in 70% ethanol in phosphate-buffered saline (PBS). The epidermis and dermis were separated following overnight incubation in 0.25% Trypsin/EDTA at 4° C. Samples were washed, diced and digested for thirty minutes at 37° C. in collagenase type I (250 U/ml) dissolved in Dulbecco's modified Eagle medium (DMEM; Invitrogen) containing penicillin (100 U/ml), 2 mM L-glutamine and 26 mM HEPES. After collagenase treatment, the cells were dislodged, centrifuged and resuspended in medium supplemented with 10% fetal bovine serum. […]\nWith regard to cytokine transcription levels, Total RNA was isolated from cultured fibroblasts using Trizol reagent (Invitrogen) and 1 μg from each sample was reverse transcribed for 1 hr at 37° C. using the High Capacity cDNA Reverse Transcription Kit. Real-time quantitative RT-PCR was performed with the TaqMan Gene Expression Assay and was normalized against […] using an ABI 7900 Real-time PCR System (Applied Biosystems). […]"}},
  "data": [
    {"smiles": "O=C(O)CCCCC1CCSS1", "note": "(stereo not drawn) [LA, alpha-lipoic acid]", "values": [
      {"measurement": "rate of gene expression of pg 91^phox subunit", "setting": "gp 91^phox", "value": "tended to reduce"},
      {"measurement": "reduction of DNA fragmentation rate in diabetic arteries", "setting": "aortic tissues; chronic LA treatment, GK rats", "value": 42, "unit": "%"},
      {"measurement": "LA-mediated antiapoptotic effect after discontinuation", "setting": "aortic tissues; two weeks after discontinuation of therapy", "value": "markedly reduced"},
      {"measurement": "diabetes related up-regulation of TNF-α mRNA (aorta)", "setting": "TNF-α", "value": "Reversal"},
      {"measurement": "TNF-α-induced abnormalities (O2− generation, caspase 3/7, DNA fragmentation, Ach-induced vasorelaxation)", "setting": "cultured arteries", "value": "partially reversed"},
      {"measurement": "high NF-κB level in vascular diabetic nuclei", "setting": "NF-κB", "value": "reversed"},
      {"measurement": "diabetic vascular proinflammatory phenotype, aortic expression of ICAM-1", "setting": "ICAM-1", "value": "partially reversed"},
      {"measurement": "transcription of inflammatory cytokines in diabetic fibroblasts", "setting": "diabetic fibroblasts", "value": "decreases"}
    ]}
  ]
}
